Here are results for 17 compounds from US8735417B2, “Aminopyrimidines as Syk inhibitors” (Merck Sharp & Dohme Corp., priority 2009, dated 2014).

For one data set, the system named is allergic rhinitis.
Assay: not given
The settings on record: dosed intranasally, phase I/II study; cited from earlier work.
Turning to `Oc1cccc(Nc2ncc(F)c(Nc3cccc(O)c3)n2)c1` [Example R112], the clinical safety entry was “safe across a range of indicators” and the “decrease in PGD2” value is reported as “statistically significant decrease”.

The target of the next data set is T1, recombinant human GST-SYK (Homo sapiens, UniProt P43405).
T1 construct: purchased Carna Biosciences 08-176
Briefly: Homogeneous Time-Resolved Fluorescence (HTRF) assay for the recombinant human SYK enzyme. To be noted: recombinant human GST-SYK 5 pM, ATP 25 μM, 10-dose titration; read-out: rhSYK Activity (IC50). It is filed as biochemical. The method, boiled down: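 GST-hSYK (5 pM) preincubated 10 min at room temperature with inhibitor (0.1% DMSO) in Tris pH 7.5 buffer; reaction started with 250 nM biotinylated peptide, 5 mM Mg and 25 μM ATP, 45 min. EDTA quench with Eu-anti-phosphotyrosine antibody and SA-APC; HTRF read after 30 min.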
A general note: TR-FRET usually uses a lanthanide donor and a delayed reading to cut background.
For `Cn1cnc(CNc2ncc(-c3cccc(Nc4nccc(C(F)(F)F)n4)c3)s2)c1` [Example 81], the IC50 (commonly the concentration at which inhibition is half-maximal) was not above 100 nM. The same measure, in the same setting: the figure for `Cc1cc(Nc2nccc(C(F)(F)F)n2)cc(-c2cnc(NCc3cc(C)n(C)n3)s2)c1` [Example 88] is not above 100 nM; for `Cc1cc(Nc2nccc(C(F)(F)F)n2)cc(-c2cnc(NCCc3ccncc3)s2)c1` [Example 118] it is not above 100 nM.

On to `Cc1cc(Nc2nccc(C(F)(F)F)n2)cc(-c2cnc(NCCc3c(C)n[nH]c3C)s2)c1` [Example 111], for which the IC50 is not above 100 nM. As for `OCCN(CCO)c1ncc(-c2cccc(Nc3nccc(C(F)(F)F)n3)c2)s1` [Example 3], the concentration for half-maximal inhibition (IC50) is not above 100 nM. The same measure, in the same setting: the figure for `FC(F)(F)c1ccnc(Nc2cccc(-c3cnc(N4CCC(n5cc(-c6ccccc6)nn5)CC4)s3)c2)n1` [Example 137] is 100 to 1000 nM.

Regarding `Cc1cnc(Nc2cc(C)cc(-c3cnc(N4CCCNC(=O)C4)s3)c2)nc1` [Example 203], the IC50 is not above 100 nM. On the same count and under the same terms, the same measure for `O=C(COC1CCN(c2ncc(-c3cccc(Nc4nccc(C(F)(F)F)n4)c3)s2)CC1)NC1CC1` [Example 136]: 100 to 1000 nM. With `CC(Nc1ncc(-c2cccc(Nc3nccc(C(F)(F)F)n3)c2)s1)c1ccccc1` (stereo not shown) [Example 55], the IC50 is 100 to 1000 nM. The same measure, in the same setting: the figure for `FC(F)(F)c1ccnc(Nc2cccc(-c3cnc(NCc4cccc(-n5cccn5)c4)s3)c2)n1` [Example 76] is not above 100 nM.

`FC(F)(F)c1ccnc(Nc2cccc(-c3cnc(NCc4c[nH]nn4)s3)c2)n1` [Example 41]: the concentration for half-maximal inhibition (IC50) is not above 100 nM. Same read-out and setting: the same measure for `CN(c1ncc(-c2cccc(Nc3nccc(C(F)(F)F)n3)c2)s1)C1CCOC1` (stereo not shown) [Example 36]: not above 100 nM; for `O=C(CO)Nc1ncc(-c2cccc(Nc3nccc(C(F)(F)F)n3)c2)s1` [Example 183, 2-hydroxy-N-[5-(3-{[4-(trifluoromethyl)pyrimidin-2-yl]amino}phenyl)-1,3-thiazol-2-yl]acetamide]: not above 100 nM; for `OCC1CCCN(c2ncc(-c3cccc(Nc4nccc(C(F)(F)F)n4)c3)s2)C1` (stereo not shown) [Example 134]: not above 100 nM.

On to `Cc1cc(Nc2nccc(C(F)(F)F)n2)cc(-c2cnc(N3CCC(CC(N)=O)CC3)s2)c1` [Example 148], for which the IC50 is not above 100 nM. Same read-out and setting: the figure for `Cn1cncc1CNc1ncc(-c2cccc(Nc3nccc(C(F)(F)F)n3)c2)s1` [Example 22] is not above 100 nM.

The next data set deals with allergic rhinitis.
Assay: not given
To be noted: phase II clinical trial; cited from earlier work.
Take `Oc1cccc(Nc2ncc(F)c(Nc3cccc(O)c3)n2)c1` [Example R112]: the efficacy versus placebo result is on record as “lack of efficacy versus placebo”.
